Experimental data: ChEMBL document CHEMBL1141139 (J Med Chem, 2005)

Legend:
[1] = biological target: Neuronal acetylcholine receptor; alpha4/beta2 (Rattus norvegicus, UniProt P09483+P12390); test: Displacement of [3H]-cytisine from Alpha4-beta2 Nicotinic acetylcholine receptor of rat brain homogenates; assay type: tissue-based
[2] = Lethal dose against rodents; Range = 1200-10e4 nmol/kg; assay type: toxicity; settings: rodentia
[3] = biological target: T1, Neuronal acetylcholine receptor; alpha3/beta4 (Rattus norvegicus, UniProt P04757+P12392); test: Effective concentration against alpha3-beta4 nicotinic acetylcholine receptor (nAChR) expressed in IMR32 cell; assay type: cell-based, IMR-32
[4] = Lethal dose against rodents; Range = 7-67 nmol/kg; assay type: toxicity; settings: rodentia, in vivo
[5] = biological target: T1, Neuronal acetylcholine receptor; alpha3/beta4; test: Effective concentration against alpha3-beta4 nicotinic acetylcholine receptor (nAChR) expressed in Xenopus oocytes; assay type: cell-based, Oocyte
[6] = Lethal dose against rodents; Range = 12-120 nmol/kg; assay type: toxicity; settings: rodentia, in vivo
[7] = Lethal dose against rodents; Range = 1.37e5 nmol/kg; assay type: toxicity; settings: rodentia
[8] = biological target: T1, Neuronal acetylcholine receptor; alpha3/beta4; test: Effective concentration against alpha3-beta4 Nicotinic acetylcholine receptor (nAChR); assay type: protein-complex assay
[9] = Lethal dose against rodents; Range = 1.38e7 nmol/kg; assay type: toxicity; settings: rodentia
[10] = Lethal dose against rodents; assay type: toxicity; settings: rodentia
[11] = Lethal dose against rodents; Range = 1200-10e4; assay type: toxicity; settings: rodentia
[12] = biological target: T1, Neuronal acetylcholine receptor; alpha3/beta4; test: Displacement of [3H]epibatidine from Alpha3 Beta4 Nicotinic acetylcholine receptor of rat brain homogenates

T1 sequence (P04757 whole entry): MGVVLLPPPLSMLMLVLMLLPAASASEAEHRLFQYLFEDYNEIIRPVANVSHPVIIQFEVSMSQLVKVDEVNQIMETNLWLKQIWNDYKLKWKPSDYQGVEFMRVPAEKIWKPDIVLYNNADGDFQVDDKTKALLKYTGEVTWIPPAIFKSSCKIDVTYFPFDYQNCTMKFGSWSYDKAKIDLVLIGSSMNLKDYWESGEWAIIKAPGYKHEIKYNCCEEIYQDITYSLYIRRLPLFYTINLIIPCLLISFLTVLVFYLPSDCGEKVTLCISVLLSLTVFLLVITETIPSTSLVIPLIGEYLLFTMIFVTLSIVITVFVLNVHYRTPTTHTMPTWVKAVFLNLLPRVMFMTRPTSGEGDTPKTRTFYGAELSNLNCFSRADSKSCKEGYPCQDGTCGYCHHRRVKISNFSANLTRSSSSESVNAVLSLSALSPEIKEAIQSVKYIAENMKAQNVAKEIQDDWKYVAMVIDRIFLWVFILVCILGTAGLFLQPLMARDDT
T1 sequence (P12392 whole entry): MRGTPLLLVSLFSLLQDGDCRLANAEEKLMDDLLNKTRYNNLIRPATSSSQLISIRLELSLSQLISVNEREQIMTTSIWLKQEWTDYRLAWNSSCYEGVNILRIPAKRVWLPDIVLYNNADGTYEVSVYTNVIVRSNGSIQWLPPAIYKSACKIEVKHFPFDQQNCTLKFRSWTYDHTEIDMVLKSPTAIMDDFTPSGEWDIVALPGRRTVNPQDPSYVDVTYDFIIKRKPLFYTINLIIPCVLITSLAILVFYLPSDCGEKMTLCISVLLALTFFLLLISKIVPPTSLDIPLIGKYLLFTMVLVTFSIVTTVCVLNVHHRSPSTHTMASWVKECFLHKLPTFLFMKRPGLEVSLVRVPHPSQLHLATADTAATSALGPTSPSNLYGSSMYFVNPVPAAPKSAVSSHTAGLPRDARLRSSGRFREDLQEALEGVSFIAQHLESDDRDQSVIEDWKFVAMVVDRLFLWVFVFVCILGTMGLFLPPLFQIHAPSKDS
Chain of Neuronal acetylcholine receptor; alpha4/beta2 (P09483 whole entry): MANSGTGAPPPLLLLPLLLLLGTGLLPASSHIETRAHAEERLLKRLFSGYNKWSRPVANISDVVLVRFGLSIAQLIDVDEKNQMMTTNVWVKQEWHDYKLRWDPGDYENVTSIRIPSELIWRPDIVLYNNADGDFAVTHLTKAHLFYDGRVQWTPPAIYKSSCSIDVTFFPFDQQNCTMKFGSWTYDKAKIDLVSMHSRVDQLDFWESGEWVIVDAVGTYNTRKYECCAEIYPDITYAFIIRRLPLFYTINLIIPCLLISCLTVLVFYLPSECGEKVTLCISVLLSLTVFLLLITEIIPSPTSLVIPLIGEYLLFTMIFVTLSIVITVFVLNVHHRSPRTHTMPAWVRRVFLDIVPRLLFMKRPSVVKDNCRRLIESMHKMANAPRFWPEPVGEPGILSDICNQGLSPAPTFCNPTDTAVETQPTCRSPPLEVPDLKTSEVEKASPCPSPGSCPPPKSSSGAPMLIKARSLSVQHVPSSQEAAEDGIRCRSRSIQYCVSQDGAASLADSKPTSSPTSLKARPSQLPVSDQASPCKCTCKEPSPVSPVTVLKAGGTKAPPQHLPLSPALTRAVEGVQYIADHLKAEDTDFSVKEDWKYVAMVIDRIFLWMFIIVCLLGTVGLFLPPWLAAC
Chain of Neuronal acetylcholine receptor; alpha4/beta2 (P12390 whole entry): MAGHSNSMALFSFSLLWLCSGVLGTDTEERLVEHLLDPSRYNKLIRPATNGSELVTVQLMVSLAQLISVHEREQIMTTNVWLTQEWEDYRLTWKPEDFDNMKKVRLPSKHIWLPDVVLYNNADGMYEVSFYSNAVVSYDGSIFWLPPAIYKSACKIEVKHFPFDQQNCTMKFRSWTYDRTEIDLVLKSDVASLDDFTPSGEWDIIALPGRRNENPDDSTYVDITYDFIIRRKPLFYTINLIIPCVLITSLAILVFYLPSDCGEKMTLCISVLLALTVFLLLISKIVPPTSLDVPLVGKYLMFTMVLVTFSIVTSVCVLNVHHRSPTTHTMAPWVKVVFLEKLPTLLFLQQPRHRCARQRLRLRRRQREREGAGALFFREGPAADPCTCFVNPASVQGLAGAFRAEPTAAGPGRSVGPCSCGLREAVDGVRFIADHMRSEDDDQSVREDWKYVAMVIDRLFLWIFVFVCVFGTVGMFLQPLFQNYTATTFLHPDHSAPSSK

CN1CCCC1COc1cccnc1 (configuration not stated)
Ki [1]: 0.15 nM
LD50 [2]: 100 µmol/kg
EC50 [3]: 63000 nM

Clc1ccc([C@@H]2C[C@H]3CC[C@@H]2N3)cn1 [(+)-EPIBATIDINE]
LD50 [4]: 0.067 µmol/kg

c1cncc(C2CC3CCC2N3)c1 (single isomer, unassigned; (-)) [DESCHLOROEPIBATIDINE]
Ki [1]: 0.015 nM
EC50 [5]: 250 nM
LD50 [6]: 120 nmol/kg

CN1CCCC1COc1ccc(Cl)nn1 (configuration not stated)
Ki [1]: 29 nM

CN1CCCC1COc1ccccn1 (configuration not stated)
Ki [1]: 495 nM

Clc1ccc(C2CC3CCC2N3)cn1 (configuration not stated) [EPIBATIDINE]
LD50 [4]: 0.067 µmol/kg

Cc1cc([C@@H]2CCCN2C)on1 [ABT-418]
Ki [1]: 4 nM
LD50 [7]: 137 µmol/kg
EC50 [8]: 209000 nM

c1cncc(C2CC3CCC2N3)c1 (single isomer, unassigned; (+)) [DESCHLOROEPIBATIDINE]
Ki [1]: 0.064 nM
EC50 [5]: 510 nM
LD50 ([6]; read-out: LD50): 120 nmol/kg

CN1CCCC1COc1cnccn1 (configuration not stated)
Ki [1]: 16.3 nM

CC(=O)OCC[N+](C)(C)C [ACETYLCHOLINE]
LD50 [9]: 13800 µmol/kg

CN1C2C=C(c3cccnc3)CC1CC2 (configuration not stated)
LD50 [10]: 0.25 µmol/kg

c1cncc(OCC2CCN2)c1 (configuration not stated)
Ki [1]: 0.05 nM
LD50 [11]: 100 µmol/kg
Ki [12]: 73.6 nM
